{
  "source": "patent US9006261B2",
  "about": "“Fluorescent perylene derivatives for direct detection of heparin” (priority 2009, dated 2015)",
  "assay": "Fluorescence response to Dalteparin sodium in buffer, serum and plasma",
  "assay_type": "binding",
  "conditions": "fluorescence of perylene diimide derivative/LMWH mixture",
  "experimental": "The response of the perylene diimide derivative to heparin was additionally studied using Dalteparin sodium (0.4-0.8 IU/mL), a clinically important LMWH preparation with a mean molecular weight of 5000 g/mol. Fluorescence was recorded with a portable fluorometer, equipped with a 485 nm excitation filter and a 665 nm cutoff emission filter. The latter filter offered good signal-to-background ratio since serum/plasma autofluorescence is very low above 665 nm. The fluorescence of the perylene diimide derivative decreased approximately linearly (FIG. 4c) with increasing LMWH concentration, in buffered solution. The binding ration was calculated to be one perylene diimide derivative/2 disaccharides of heparin. Solutions containing 20 vol % serum or plasma required an only slightly larger (about 1.1-fold) LMWH concentration to trigger the same relative fluorescence decrease as observed in buffered solution.",
  "data": [
    {"substance": "protamine", "values": [
      {"measurement": "reversibility of LMWH binding on addition of protamine", "value": "fluorescence was restored"}
    ]}
  ]
}
